Source: patent publication US12059405B1, “3-(2,4,5-tris(4-chlorophenyl)-1H-imidazol-1-yl) propanoic acid as an antimicrobial compound” (KING FAISAL UNIVERSITY, priority 2023, dated 2024)

Columns and labels:
Type in all cases: cell-based
Staphylococcus aureus = assay: Agar plate disc-diffusion, antibacterial, Staphylococcus aureus; conditions: nutrient agar, 37° C., 48 hours, DMSO control zone subtracted
Protocol: (§1) The agar plate disc-diffusion method was applied. […] The discs were then placed onto the surface of agar plates (nutrient agar for bacteria and Sabouraud's dextrose agar for fungi) seeded with the test organism. Each plate contained 15 mL of the agar medium, previously seeded with 0.2 mL of the broth culture of each organism pregrown for 18 hours. The plates were incubated at 37° C. for 48 hours, and 72 hours for fungi. The inhibition zones was measured in mm. Discs impregnated with DMSO were used as a control, and its inhibition zone was subtracted from the tested compound actual inhibition zone.

Bacillus cereus = assay: Agar plate disc-diffusion, antibacterial, Bacillus cereus; conditions: nutrient agar, 37° C., 48 hours, DMSO control zone subtracted
Protocol: as §1

Aspergillus flavus = assay: Agar plate disc-diffusion, antifungal, Aspergillus flavus; conditions: Sabouraud's dextrose agar, 37° C., 72 hours, DMSO control zone subtracted
Protocol: as §1

[1] = system: Chrysosporium keratinophilum; assay: Agar plate disc-diffusion, antifungal, Chrysosporium keratinophilum; conditions: Sabouraud's dextrose agar, 37° C., 72 hours, DMSO control zone subtracted
Protocol: as §1

Escherichia coli = assay: Agar plate disc-diffusion, antibacterial, Escherichia coli; conditions: nutrient agar, 37° C., 48 hours, DMSO control zone subtracted
Protocol: as §1

Pseudomonas aeruginosa = assay: Agar plate disc-diffusion, antibacterial, Pseudomonas aeruginosa; conditions: nutrient agar, 37° C., 48 hours, DMSO control zone subtracted
Protocol: as §1

[2] = A = concentration of comp. = 10,000 μL
[3] = B = concentration of comp. = 30,000 μL
[4] = C = concentration of comp. = 50,000 μL

`O=C(O)CCn1c(-c2ccc(Cl)cc2)nc(-c2ccc(Cl)cc2)c1-c1ccc(Cl)cc1` [V, 3-(2,4,5-tris(4-chlorophenyl)-1H-imidazol-1-yl)propanoic acid] was tested, and the “inhibition zone, Staphylococcus aureus, A” value (Staphylococcus aureus; [2]) was 19 mm, the “inhibition zone, Staphylococcus aureus, B” value (Staphylococcus aureus; [3]) was 23 mm and the “inhibition zone, Staphylococcus aureus, C” value (Staphylococcus aureus; [4]) was 36 mm. The “inhibition zone, Bacillus Cereus, A” value (Bacillus cereus; [2]) was 21 mm, the “inhibition zone, Bacillus Cereus, B” value (Bacillus cereus; [3]) was 29 mm and the “inhibition zone, Bacillus Cereus, C” value (Bacillus cereus; [4]) was 38 mm. For the same molecule, the “inhibition zone, Aspergillus flavus, A” value (Aspergillus flavus; [2]) was 19 mm, the “inhibition zone, Aspergillus flavus, B” value (Aspergillus flavus; [3]) was 24 mm and the “inhibition zone, Aspergillus flavus, C” value (Aspergillus flavus; [4]) was 32 mm. For the same molecule, the “inhibition zone, Chrysosporium keratinophilum, A” value [1, 2] was 25 mm, the “inhibition zone, Chrysosporium keratinophilum, B” value [1, 3] was 26 mm and the “inhibition zone, Chrysosporium keratinophilum, C” value [1, 4] was 45 mm. For the same molecule, the “inhibition zone, Escherichia coli, A” value (Escherichia coli; [2]) was 27 mm, the “inhibition zone, Escherichia coli, B” value (Escherichia coli; [3]) was 36 mm and the “inhibition zone, Escherichia coli, C” value (Escherichia coli; [4]) was 48 mm. For the same molecule, the “inhibition zone, Pseudomonas aeruginosa, A” value (Pseudomonas aeruginosa; [2]) was 25 mm, the “inhibition zone, Pseudomonas aeruginosa, B” value (Pseudomonas aeruginosa; [3]) was 26 mm and the “inhibition zone, Pseudomonas aeruginosa, C” value (Pseudomonas aeruginosa; [4]) was 37 mm.
